Literature values as cited in US20140370105A1, “TREATMENT OF INFLAMMATORY BOWEL DISEASE WITH 6-MERCAPTOPURINE” (Teva Pharmaceutical Industries, Ltd., priority 2008, published 2014).

System: inflammatory bowel disease
Conditions: conventional therapy

Sc1ncnc2nc[nH]c12 [6-MP, 6-mercaptopurine]
time required to be effective / show effect (IBD / Crohn's disease patients): 3-4 months
time required to show any benefit (IBD patients): at least 12 weeks
